Results: ChEMBL document CHEMBL4400577, “Fragment-based Discovery of a Small-Molecule Protein Kinase C-iota Inhibitor Binding Post-kinase Domain Residues” (ACS Med Chem Lett, 2019)
Converted amounts (≈) assume the structure as drawn.

Columns and labels:
[1] = target: T1, Protein kinase C iota type (Homo sapiens, UniProt P41743); test: Inhibition of recombinant human full length N-terminal GST-fused PKCi (1 to 587 residues) expressed in baculovirus expression system using 5-FAM-RFARKGSLRQKNV as substrate measured after 60 mins by caliper microfluidic mobility shift assay
T1 sequence (P41743 whole entry): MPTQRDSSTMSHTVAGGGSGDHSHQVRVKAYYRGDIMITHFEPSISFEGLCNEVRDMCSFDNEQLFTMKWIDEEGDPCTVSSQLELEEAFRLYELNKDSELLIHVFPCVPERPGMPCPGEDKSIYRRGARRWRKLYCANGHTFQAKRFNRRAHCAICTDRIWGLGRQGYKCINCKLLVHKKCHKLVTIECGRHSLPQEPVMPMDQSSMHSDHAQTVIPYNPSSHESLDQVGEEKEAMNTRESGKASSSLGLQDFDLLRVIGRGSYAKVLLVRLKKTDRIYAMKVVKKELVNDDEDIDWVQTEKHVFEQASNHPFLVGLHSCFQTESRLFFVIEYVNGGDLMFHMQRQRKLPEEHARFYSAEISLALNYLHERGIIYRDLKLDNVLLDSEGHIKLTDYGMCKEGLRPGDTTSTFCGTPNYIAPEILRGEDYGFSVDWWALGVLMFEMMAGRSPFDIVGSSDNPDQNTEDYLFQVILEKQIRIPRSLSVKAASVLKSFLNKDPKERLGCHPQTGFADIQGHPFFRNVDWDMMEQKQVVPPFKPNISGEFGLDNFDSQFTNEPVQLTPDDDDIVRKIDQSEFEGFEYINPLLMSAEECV

[2] = test system: Huh-7; test: Antiproliferative activity against human HuH7 cells assessed as cell growth inhibition measured after 72 hrs by CellTiter-Glo luminescent assay; format: functional; settings: Huh-7, 72 h
[3] = Solubility of the compound at pH 7.4; format: physicochemical; settings: buffer
[4] = Clearance in mouse liver microsomes; format: ADME, Microsome; settings: read-out: CLH
[5] = Clearance in human liver microsomes; format: ADME, Microsome; settings: read-out: CLH
[6] = Permeability across apical to basolateral side in human Caco2 cells; format: ADME, cell-based; settings: Caco-2

IC50 [1]	Compound	other results
76 µM	Nc1nccnc1C(=O)Nc1ccc(O)cc1	–
0.27 µM	Nc1ncc(-c2cccc(N3CCNCC3)c2)nc1C(=O)Nc1ccncc1	–
> 384 µM	Nc1ncc(Br)cc1C(=O)Nc1ccncc1	–
0.71 µM	NCc1cccc(-c2cnc(N)c(C(=O)Nc3ccncc3)c2)c1	–
24 µM	CC(C)(C)c1cc(NC(=O)c2nccnc2N)ccn1	–
77 µM	Nc1nccnc1C(=O)Nc1cccnc1	–

More lines, now with the values behind:

Compound	IC50 [1]	other results
Nc1nccnc1C(=O)Nc1ccnc2[nH]ccc12	> 384 µM	–
N[C@H](CNc1nc(-c2ccncc2)nc2sc3c(c12)CCCC3)Cc1ccccc1	–	GI50 [2]: 3.1 µM
Nc1nccnc1C(=O)Nc1ccc2[nH]ccc2c1	34 µM	–
Nc1ncc(-c2ccccc2)cc1C(=O)Nc1ccncc1	32 µM	–
NC(=O)c1cccc(-c2cnc(N)c(C(=O)Nc3ccncc3)c2)c1	> 384 µM	–
Nc1nccnc1C(=O)Nc1ccnc(Br)c1	> 384 µM	–
Nc1nccnc1C(=O)Nc1cccc(C2CC2)c1	42.2 µM	–
Nc1ncccc1C(=O)Nc1ccncc1	22 µM	–
CCc1cc(NC(=O)c2nccnc2N)ccn1	19.6 µM	–
Nc1ncc(-c2cccc(N3CCNCC3)c2)cc1C(=O)Nc1ccncc1	0.34 µM	GI50 [2]: 11.3 µM; solubility [3]: 164 µg/mL (≈ 438 µM); microsomal CLint [4]: 71 µL/min/mg; microsomal CLint [5]: 5.1 µL/min/mg; Papp A→B [6]: 0.28 ×10⁻⁶ cm/s
Nc1nccnc1C(=O)Nc1ccncc1Br	> 384 µM	–
Nc1nccnc1C(=O)Nc1ccncc1	23 µM	–
Cc1cc(NC(=O)c2nccnc2N)cc(C)n1	263 µM	–
Nc1nccnc1C(=O)NCc1ccncc1	> 384 µM	–
